# Data: patent US20170112897A1, “METHODS FOR TREATING BRAIN INSULIN RESISTANCE” (priority 2015, published 2017)
# Test system: SOCS3 associated with the insulin receptor (SOCS3/IRβ)
# Assay: Ex vivo Western blotting of SOCS3 to IR beta chain ratio in hippocampal formation
# Format: cell-based, human
# Details: MCI cases
# Description: The data shown are ratios of SOCS3 to IR beta chain (IRβ) in ex vivo Western blotting tests on the hippocampal formation of age- and sex-matched normal (N), non-amnestic mild cognitive impairment (naMCI), amnestic mild cognitive impairment (aMCI), and AD dementia (ADd) cases (n=10 in each group). The basal SOCS3/IRβ levels were highly elevated in naMCI, aMCI, and ADd cases compared to the normal cases. […] Asterisks indicate statistical significance levels for differences within diagnostic groups (*=p<0.05 and *** p=<0.0001).
substance,measurement,value
D-Ala^2 GIP,basal SOCS3/IRβ ratio,highly effective in reducing this ratio
